Data reported in US8513229B2, “4-Azetidinyl-1-phenyl-cyclohexane antagonists of CCR2” (Janssen Pharmaceutica NV, priority 2009, dated 2013).
pIC50: −log10 of the molar value.

biological target: T1, CCR2 (Homo sapiens, UniProt P41597); assay: MCP-1 Receptor Binding Assay in THP-1 Cells; settings: 0.5 nM 125I labeled MCP-1, 2 hours at 30° C., read-out: Inhibition of MCP-1 Binding IC50 CCR2 Binding
T1 construct: host or cells: THP-1 human monocytic cells
T1 sequence (P41597 1-360 isoform P41597-2): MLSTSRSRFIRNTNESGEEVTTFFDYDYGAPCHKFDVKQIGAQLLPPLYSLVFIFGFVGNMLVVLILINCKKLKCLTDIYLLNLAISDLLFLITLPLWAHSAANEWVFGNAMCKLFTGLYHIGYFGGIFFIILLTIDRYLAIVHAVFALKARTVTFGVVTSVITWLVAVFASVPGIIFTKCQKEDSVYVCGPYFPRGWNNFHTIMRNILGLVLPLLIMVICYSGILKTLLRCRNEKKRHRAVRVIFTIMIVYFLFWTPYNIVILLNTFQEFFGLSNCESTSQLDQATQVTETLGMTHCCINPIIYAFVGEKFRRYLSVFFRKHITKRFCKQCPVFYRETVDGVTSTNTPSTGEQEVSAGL
Procedure: MCP-1 Receptor Binding Assay in THP-1 Cells
Human monocytic cell line THP-1 cells were obtained from American Type Culture Collection (Manassas, Va., USA). […] The cell density was maintained […].
1 μM cold MCP-1 was used for nonspecific binding.

pIC50 | SMILES
6.96 | O=C(CNC(=O)c1cccc(C(F)(F)F)c1)NC1CN(C2CCC(O)(c3cccc(O)c3)CC2)C1 (single isomer, unassigned) [Example 46a, N-({1-[4-Hydroxy-4-(3-hydroxy-phenyl)-cyclohexyl]-azetidin-3-ylcarbamoyl}-methyl)-3-trifluoromethyl-benzamide]
6.72 | CSc1cccc(C2(O)CCC(N3CC(NC(=O)CNC(=O)c4cccc(C(F)(F)F)c4)C3)CC2)c1 (single isomer, unassigned) [Example 38a, N-({1-[4-Hydroxy-4-(3-methylsulfanyl-phenyl)-cyclohexyl]-azetidin-3-ylcarbamoyl}-methyl)-3-trifluoromethyl-benzamide]
6.13 | COc1ccc(C(F)(F)F)cc1C(=O)NCC(=O)NC1CN(C2CCC(c3ccccc3)CC2)C1 (stereo not drawn) [Example 68, 2-Methoxy-N-{[1-(4-phenyl-cyclohexyl)-azetidin-3-ylcarbamoyl]-methyl}-5-trifluoromethyl-benzamide]
6.64 | C#Cc1cccc(C2(O)CCC(N3CC(NC(=O)CNC(=O)c4cccc(C(F)(F)F)c4)C3)CC2)c1 (single isomer, unassigned) [Example 51a, N-({1-[4-(3-Ethynyl-phenyl)-4-hydroxy-cyclohexyl]-azetidin-3-ylcarbamoyl}-methyl)-3-trifluoromethyl-benzamide]
6.82 | Cn1c(=O)oc2ccc(C3(O)CCC(N4CC(NC(=O)CNC(=O)c5cccc(C(F)(F)F)c5)C4)CC3)cc21 (stereo not drawn) [Example 63a, N-({1-[4-Hydroxy-4-(3-methyl-2-oxo-2,3-dihydro-benzooxazol-5-yl)-cyclohexyl]-azetidin-3-ylcarbamoyl}-methyl)-3-trifluoromethyl-benzamide]
5.28 | COc1ccccc1C1(O)CCC(N2CC(NC(=O)CNC(=O)c3cccc(C(F)(F)F)c3)C2)CC1 (single isomer, unassigned) [Example 56a, N-({1-[4-Hydroxy-4-(2-methoxy-phenyl)-cyclohexyl]-azetidin-3-ylcarbamoyl}-methyl)-3-trifluoromethyl-benzamide]
7.15 | O=C(CNC(=O)c1cccc(C(F)(F)F)c1)NC1CN(C2CCC(c3ccc(C(=O)O)cc3)CC2)C1 (stereo not drawn) [Example 10, 4-(4-{3-[2-(3-Trifluoromethyl-benzoylamino)-acetylamino]-azetidin-1-yl}-cyclohexyl)-benzoic acid]
7.00 | CS(=O)(=O)Nc1ccc(C2CCC(N3CC(NC(=O)CNC(=O)c4cccc(C(F)(F)F)c4)C3)CC2)cc1 (stereo not drawn) [Example 16, N-({1-[4-(4-Methanesulfonylamino-phenyl)-cyclohexyl]-azetidin-3-ylcarbamoyl}-methyl)-3-trifluoromethyl-benzamide]
7.35 | O=C(CNC(=O)c1cccc(C(F)(F)F)c1)NC1CN(C2CCC(c3ccc4c(c3)OCC4)CC2)C1 (single isomer, unassigned) [Example 3a, N-({1-[4-(2,3-Dihydro-benzofuran-6-yl)-cyclohexyl]-azetidin-3-ylcarbamoyl}-methyl)-3-trifluoromethylbenzamide]
7.48 | O=C(CNC(=O)c1cccc(C(F)(F)F)c1)NC1CN(C2CCC(c3ccccc3)CC2)C1 (single isomer, unassigned) [Example 4a, N-{[1-(4-Phenyl-cyclohexyl)-azetidin-3-ylcarbamoyl]-methyl}-3-trifluoromethyl-benzamide]
7.07 | N#Cc1cccc(C2CCC(N3CC(NC(=O)CNC(=O)c4cccc(C(F)(F)F)c4)C3)CC2)c1 (single isomer, unassigned) [Example 8a, N-({1-[4-(3-Cyano-phenyl)-cyclohexyl]-azetidin-3-ylcarbamoyl}-methyl)-3-trifluoromethyl-benzamide]
7.68 | O=C(CNC(=O)c1cccc(C(F)(F)F)c1)NC1CN(C2CCC(c3ccc(O)cc3)CC2)C1 (single isomer, unassigned) [Example 40a, N-({1-[4-(4-Hydroxy-phenyl)-cyclohexyl]-azetidin-3-ylcarbamoyl}-methyl)-3-trifluoromethyl-benzamide]
